Values after ≈ are worked out from the molar mass of the structure shown. Values joined by “and” are separate entries in the source; they are usually repeats but may differ in a detail not shown here. Equal values may be shown once. “Also recorded” adds a separate entry of the source. Read-outs that look alike come from different tables or passages of the source. Where a SMILES comes first, the peptide text is derived from it.

For series [1] the following is noted: naturally occurring antimicrobial peptides; cited from earlier work. An excerpt:
The pronounced antimicrobial activities of cationic amphipathic peptides including LAH4 sequences have been associated with the perforation of microbial membranes. Indeed, under conditions where the peptides align along the membrane surface, high concentrations of LAH4 peptides result in the lysis of lipid bilayers. It is therefore unexpected that antimicrobial activity is highest for large hydrophilic angles, i.e., in inverse correlation with calcein release (Table 2, Figure 5). However, some of the naturally occurring antimicrobial pept ...

For series [2], the system named is HCT116 cells. Briefly: Saporin delivery, MTS cell viability. The series is classed as cell-based, human. The settings on record: HCT116, 0.54 µg/triplicate non-complexed saporin, 2 h 30 min, MTS two days later; result in words. The procedure:
Figure 2 Transduction of the plant toxin saporin. HCT116 cells plated in 96-well plates were treated with 0.54 µg/triplicate of saporin in the absence or presence of LAH4 peptides (LAH4-Ln series in (A) and LAH4-An series in (B)). […] Two days later, an MTS assay was performed. The cell viability efficiency is expressed relative to untreated cells (=100%). […] For each peptide 3 conditions were tested: 4.05, 5.4 and 8.1 µg of peptide/0.54 µg saporin. Untreated cells (=100%; purple bar) and non-complexed saporin (black bar) were used as the control. The hydrophilic angles are shown on top in italics. […] The cell viability values appear only as bars and are not printed, so none are given. […]
Cell metabolic activity was measured by using an MTS (3-(4,5-dimethylthiazol-2-yl)-5-(3-carboxymethoxyphenyl)-2-(4-sulfophenyl)-2H-tetrazolium) assay (CellTiter 96® AQ ueous One Solution Cell Proliferation Assay, Promega). […] Plates were read at 490 nm (reagent absorbance) and 680 nm (background) (SP200, Safas, Monaco). The results were expressed by the subtraction of background absorbance and the expression of viability relative to non-treated controls (considered as 100% viability).

Series [3] has as its system E. coli bacteria (ATCC 25922). Briefly: Broth microdilution antibacterial assay (MIC) in Mueller–Hinton broth, pH 5. Type of series: cell-based. The settings on record: for MIC50: E. coli, Mueller–Hinton broth pH 5, x50 from Origin fits of the growth curves of Figure 3 (concentration range 100 µM to 0.52 µM), fit error given, * error estimated in the range of the 1.5-fold dilution steps. Here is the method:
Therefore, the antibacterial properties of both series of peptides were analyzed in Mueller–Hinton (MH) broth at pH 5 by determining the minimal inhibitory concentrations (MICs).
Figure 3 Bacterial growth as a function of peptide concentration for the LAH4-Ln (A) and the LAH4-An series (B). The average of two experimental data sets (each data point derived from triplicates under the same experiment conditions) covering the concentration range 100 µM to 0.52 µM are shown by the relative bacterial growth when compared to bacteria in the absence of peptide (=100%). To guide the eye, the data have been fitted with the function ymin + (ymax − ymin)/(1 + (x/xo)^p)^s using the OriginPro software. […] The assay was performed in Mueller–Hinton broth, pH 5.
A broth microdilution assay was used to determine the minimal inhibitory concentration (MIC). A peptide aliquot of 1 mg was first solubilized in 50% ethanol (10 mM) then diluted in H2O to get a 300 μM peptide stock solution.
For all the activity tests, E. coli bacteria (ATCC® 25922^TM, Thermo Fisher Scientific, Courtaboeuf, France) were used. Briefly, some colonies from E. coli spread on gelose were resuspended in Mueller–Hinton broth, pH 7.4. After incubation at 37 °C for about 6 h this preculture was diluted to OD550nm = 0.2 in MH at pH5 and allowed to grow to reach the exponential phase (OD550nm = 1–2). After two-step dilution in MH pH5, the working bacteria suspension corresponding to 1.10^5–2.10^5 colony-forming units (CFU)/mL was obtained.
The antimicrobial testing was carried out in 96-well microplates (sterile polystyrene untreated with F-bottom, Thermo Scientific Nunc A/S, Roskilde, Denmark). The first column of the plate contains the highest final concentration (Cf) of peptide to test (two experiments were done: the first one starting at Cf 100 μM and a second one starting at 30 μM). All samples were added to the first column of the plate and subsequently spread onto the plate by a 1.5-fold dilution series in 10 steps. The last columns correspond to the positive and negative control conditions, respectively. Finally, the bacterial working suspension was distributed (50 μL at 1.10^5–2.10^5 CFU/mL in MH1X at pH 5) to each well except for the negative control (MH1X at pH5). The final volume was 100 μL/well and the range of peptide concentrations tested was from 100 μM to 1.73 μM for the first experiment and from 30 μM to 0.52 μM for the second experiment. The microplates were incubated at 37 °C for 12 h before bacterial growth was assessed by measuring the OD600. The initial bacterial density for each experiment was checked by spreading 100 μL of the working bacterial suspension, diluted 1/100 and 1/500 in MH1X, pH 5 on MH agar plates. After overnight incubation at 37 °C, the CFU were counted and the CFU/mL were determined. The percentage of bacterial growth compared to the positive control allows one to determine the MIC. The MIC values represent the average of the lowest tested peptide concentration (from both experiments) where most (at least 80%) of the bacterial growth is inhibited.

The subject of series [4] is VSV and GALVTR pseudotyped lentiviruses. The settings on record: cited from earlier work.
For series [5] the following is noted: in the transfection and other phosphate-containing buffers; cited from earlier work.
For series [6], the system named is HCT116 cells. Description: Luciferase protein transduction. Type of series: cell-based, human. The settings on record: HCT116, 2 µg recombinant luciferase with 10-32 µg peptide, 3 h in serum-free medium, mean of duplicates; result in words. The procedure: To perform a rapid screening of the protein transduction activities of the two series of peptides, we selected to deliver the luciferase protein from Photinus pyralis, which has a molecular weight (MW) of 62 kDa and an isoelectric point (pI) of 6.3. Indeed, the measurement of the activity of this enzyme is fast and very sensitive. […] Increasing amounts of peptides were added to a fixed amount of luciferase, and after 3 h of incubation with the human colon cancer cells HCT116, enzymatic activity was measured.
Figure 1 Transduction of the luciferase protein. HCT116 cells in 48-well plates were treated with 2 µg of recombinant luciferase (Rec. Luc) (per duplicate) in the presence or absence of LAH4 peptides (LAH4-Ln series in (A) and LAH4-An series in (B)). After 3 h of incubation in serum-free medium, cells were washed once with 1 mL/well of phosphate buffer saline (PBS), lysed, and the luciferase activity was determined. […] For each peptide, four conditions were tested: 10, 16, 24 and 32 µg of peptide/2 µg recombinant luciferase, except for LAH4 (16, 24 and 32 µg). Non-complexed recombinant luciferase was used as the control (black bar). The hydrophilic angles are shown in italics. […] It is uncertain whether it counts as a property result. The luciferase activities are shown only as bars, with no printed numbers, and are left out.
Protein complexes were generated using increasing peptide/protein w/w ratios.
Then, 0.25 mL of serum-free medium containing the peptide/protein complexes was transferred into each well. After an incubation time of 3 h at 37 °C the medium was removed, cells were washed once with 1 mL/well of PBS, and then 100 μL of lysis buffer was added per well. Luciferase activity and protein content were measured as described above.

In series [7] the test system is U87 cells. Briefly: DNA transfection with p-Luc plasmid, luciferase expression. The settings on record: 1.5 µg pDNA with 7.5-25 µg peptide, 2 h 30 min, read one day post-transfection, mean of duplicates, result in words.
Method: In vitro cell transfection experiments were performed using the plasmid p-Luc (7.6 kb), which is an expression plasmid encoding the firefly luciferase gene under the control of the human cytomegalovirus (CMV) immediate–early promoter. In total, 55,000 U87 cells were plated in 48-well plates one day before the experiment was performed. For transfection, 0.25 mL of serum-free culture medium containing the DNA complexes was deposited into each well of the duplicate. After incubation for approximately 2 h 30 min at 37 °C the medium was replaced with a fresh one containing serum. Luciferase activity was measured as described below in the cell lysate one day after transfection.
Transfection complexes were prepared as follows: for a duplicate, 1.5 μg of plasmid DNA and the desired amount of peptide were each diluted into 25 μL of acetate buffer pH 5 and gently mixed. DNA complexes were generated using increasing peptide/DNA w/w ratios. After 20 min of incubation at room temperature, the mixture was diluted with culture medium to obtain a final volume of 0.5 mL.
For luciferase activity, cells were harvested in 100 μL of lysis buffer (8 mM MgCl2, 1 mM DTT, 1 mM EDTA, 0.6% Triton X-100, 15% glycerol, and 25 mM Tris-phosphate buffer pH 7.8). The cell lysate was then transferred into Eppendorf tubes and centrifuged for 7 min at 10,000× g to pellet debris. Luciferase light units were measured in a 96-well plate format with a Centro LB luminometer (Berthold) from an aliquot of the supernatant (2 μL) with 1 s integration after automatic injection of 50 μL assay buffer (lysis buffer without Triton X-100 but supplemented with 2 mM ATP) and 50 μL of a luciferin solution (167 μM in water). Luciferase background was subtracted from each value and the protein content of the transfected cells was measured by Bradford dye-binding using the BioRad protein assay (Bio-Rad). The transfection efficiency was expressed as light units/s/mg protein (light units measured over a period of 1 s, and the values were then normalized after measurement of the amount of protein present in each well). The reported values are the mean of duplicates. Error bars represent the standard deviation of the mean.
glioblastoma U87 cells. Increasing amounts of peptide were mixed with a constant amount of reporter
plasmid (1.5 µg per duplicate of pDNA) and the complexes were incubated for 2h 30min with the
cells plated in 48-well plates. The transfection medium was then removed and replaced with fresh
culture medium supplemented with 10% serum. Luciferase activity was measured one day post-
transfection. The transfection efficiency is expressed as light units/s/mg protein and the reported
values are the mean of duplicates. Error bars represent the standard deviation of the mean.
Series [8] relates to E. coli bacteria (ATCC 25922). The settings on record: cited from earlier work. Here is the method:
Therefore, the antibacterial properties of both series of peptides were analyzed in Mueller–Hinton (MH) broth at pH 5 by determining the minimal inhibitory concentrations (MICs). […] Higher antimicrobial activity is observed when the angle increases. […] In contrast, for ...

Regarding magainin 2, the hydrophilic angle in series [1] is 180 °.
On to saporin, for which the “cell death induced by saporin alone” value in series [2] is reported as “low levels of cell death”.
Turning to “H-KKALLHAALAHLLALAHHLLALLKKA-NH2 [LAH4-A4, isomer of LAH4, LAH4-An series, also named Vectofusin-1]”, the MIC50 in series [3] was 6 µM. The lentiviral transduction enhancement entry in series [4] is given as “highly efficient; also recorded: enhances the transduction”. For the same compound, the formation of fibers entry in series [5] was “formation of fibers”.
Regarding cecropin, in series [1], the hydrophilic angle was 180 °.
On to `CC(C)C[C@H](NC(=O)[C@H](C)NC(=O)[C@H](CCCCN)NC(=O)[C@@H](N)CCCCN)C(=O)N[C@@H](CC(C)C)C(=O)N[C@@H](C)C(=O)N[C@@H](Cc1c[nH]cn1)C(=O)N[C@@H](C)C(=O)N[C@@H](CC(C)C)C(=O)N[C@@H](Cc1c[nH]cn1)C(=O)N[C@@H](CC(C)C)C(=O)N[C@@H](CC(C)C)C(=O)N[C@@H](C)C(=O)N[C@@H](CC(C)C)C(=O)N[C@@H](CC(C)C)C(=O)N[C@@H](C)C(=O)N[C@@H](CC(C)C)C(=O)N[C@@H](Cc1c[nH]cn1)C(=O)N[C@@H](CC(C)C)C(=O)N[C@@H](C)C(=O)N[C@@H](Cc1c[nH]cn1)C(=O)N[C@@H](C)C(=O)N[C@@H](CC(C)C)C(=O)N[C@@H](CCCCN)C(=O)N[C@@H](CCCCN)C(=O)N[C@@H](C)C(N)=O` [LAH4-L1] (H-KKALLAHALHLLALLALHLAHALKKA-NH2), for which the MIC in series [3] (E. coli ATCC 25922, broth microdilution, Mueller–Hinton broth pH 5, 37 °C, 12 h, OD600, concentration at which bacterial growth reaches a minimum (at least 80% inhibited), average of two experiments, each in triplicate) was 20 µM and 17 µM. Besides, in series [3], the MIC50 was 8.6 µM (≈ 23.9 µg/mL). Besides, the “luciferase protein transduction efficiency (luciferase activity, light units/s/mg protein)” value in series [6] is reported as “among the least efficient”. Besides, in series [7], the “DNA transfection activity (luciferase activity)” value is “highest activity”.
As for H-KKALLALALHHLAHLALHLALALKKA-NH2 [LAH4], the “luciferase protein transduction efficiency (luciferase activity, light units/s/mg protein)” value in series [6] is “the most efficient peptides”. The “pH dependence of antimicrobial activity” value in series [8] (E. coli, pH 5 compared to pH 7.5, result in words) was “considerably more pronounced at pH 5”. Besides, in series [8] (reference peptide LAH4, E. coli), the MIC is recorded as 8.8 µM.

What is called MIC50 is an inhibitory concentration at the 50% level, which refers to growth in some studies and to a panel of isolates in others. For orientation: MIC means the least concentration at which growth counts as inhibited.

The record behind these values is publication PMC8160934, “Different Biological Activities of Histidine-Rich Peptides Are Favored by Variations in Their Design” (Toxins, 2021).
